Test results from the NIST ThermoML archive (doi:10.1021/je800672r).

Test: wn = mass fraction of the nth substance listed
Settings: Liquid

NCC(=O)[O-].[Na+] [sodium glycinate] + O
mass density [kg/m3]
Settings	298.15 K	313.15 K	323.15 K	333.15 K	343.15 K	353.15 K
w1 = 0.01	1011.96	1002	–	996.72	990.16	985.36
w1 = 0.05	1015.92	1010.56	1005.12	1000.12	993.24	987.2
w1 = 0.1	1034.52	1029.68	1022.56	1017.56	1010.76	1005.32
w1 = 0.15	1055.6	1048.32	1042.92	1036.72	1030.08	1023.64
w1 = 0.2	1083.52	1076.44	1071	1066.48	1061.2	1054.48
w1 = 0.3	1130.4	1118	1112.76	1107.48	1101.44	1094.52
